Reference: patent US9327038B2, “Stable activatable particles as radiotherapeutic agents for the treatment of disease” (The University of North Carolina at Chapel Hill, priority 2011, dated 2016)

Legend:
NSCLC A549-luc-c8 cells = assay: Biodistribution after intravenous injection in NSCLC A549-luciferase tumor-bearing mice; assay type: in vivo, athymic (nu/nu) mice; settings: one week after i.v. injection, 300 μCi (Example 14 particles)
Description: NSCLC A549-luciferase tumor-bearing mice were prepared by injecting approximately one million NSCLC A549-luc-c8 cells into the lung parenchyma of athymic (nu/nu) mice. Implantation and tumor progression were monitored by detecting luciferase bioluminescence following luciferin injections. FIG. 15A.

[1] = system: SKOV-3 human ovarian tumor cells; assay: Survival of SKOV-3 ovarian tumor mice after intraperitoneal treatment; assay type: in vivo, athymic (nu/nu) mice; settings: 73-day period following implantation; i.p. injection twenty days after implantation (108.7 μCi for ^166Ho groups)
Description: An additional 14 SKOV-3 ovarian tumor mice received no treatment and served as the control group.
Statistical analyses were performed to compare the fraction of mice that survived over the course of the 73-day period following implantation. […] FIG. 6.

[2] = system: SKOV-3 human ovarian tumor cells; settings: mouse, in vivo, ip
Description: SKOV-3 ovarian tumor mice were prepared by injecting approximately 7×10^6 SKOV-3 human ovarian tumor cells into the peritoneal cavity of athymic (nu/nu) mice. Following a two-month incubation period, magnetic resonance imaging (MRI) was used to visualize the resultant tumors.
Biodistribution studies were performed 24 hours after injection by removing various organs from the mice and quantifying the ^166Ho content of each organ using a 2470 Wizard Automatic Gamma Counter (PerkinElmer Inc., Waltham, Mass.).

CC(=O)C=C(C)[O][166Ho]([O]C(C)=CC(C)=O)[O]C(C)=CC(C)=O [^166Ho(AcAc)3]
^166Ho in tumors, percent initial dose per gram (NSCLC A549-luc-c8 cells): not retained
surviving animals [1]: 66.7%
^166Ho in tumors, percent initial dose per gram [2]: 15.4±2.7 % ID/g
